Peptide text beside a SMILES is read from it. * marks the point of attachment. 5TAMRA = CN(C)c1ccc2c(c1)Oc1cc(N(C)C)ccc1C21OC(=O)c2cc(C(=O)*)ccc21
How the values were obtained:
[1] = tested on: CXCL8(1-77) binding to heparin; experiment: Competition with CXCL8 for binding to immobilized heparin (ELISA-like); set-up: species or system human; settings: heparin-coated plates, n ≥ 4
Description: (§1) The ability of the COOH-terminal peptides of CXCL9 and CXCL4 to compete for GAG binding with the inflammatory chemokines CXCL8 and CXCL1 was evaluated on heparin-binding plates [BD Biosciences or produced by Jason Whittle (School of Engineering/Future Industries Institute, University of South Australia, Australia)] ([42], [47]). In brief, GAGs (heparin, HS, and CS; Iduron; 25 µg/ml) were coated overnight at room temperature. Dilutions of COOH-terminal CXCL9 or CXCL4 peptide combined with recombinant human CXCL8(1-77) or recombinant murine CXCL1(1-72) (Peprotech, Rocky Hill, NJ, USA) were added in duplicate and incubated for 2 h at 37°C. Subsequently, bound CXCL8 or CXCL1 was detected with biotinylated polyclonal rabbit anti-human CXCL8 or biotinylated polyclonal goat anti-mouse CXCL1 (Peprotech) and horse radish peroxidase-labeled streptavidin. Finally, the peroxidase activity was quantified at 450 nm.
(§2) Figure 3 CXCL9(74-93) competes with CXCL8 for binding to heparin, heparan sulfate (HS), and cellular glycosaminoglycans (GAGs). Competition between CXCL8 and COOH-terminal CXCL9 or CXCL4 peptides for binding to immobilized heparin (A) or HS (B) and to Chinese hamster ovary (CHO) cells (C) was performed. […] Bound CXCL8 was detected with biotinylated anti-human CXCL8 antibodies. (C) Binding of NH2-terminally biotinylated CXCL8(1-77) (300 nM) to CHO cells in the presence or absence of an excess CXCL9 peptide was detected by streptavidin-allophycocyanin and flow cytometry. The mean (± SEM) percentage inhibition of binding of CXCL8(1-77) to heparin, HS or cellular GAGs is indicated on the y-axis (n ≥ 4). Statistical comparison of the different competitors with CXCL9(74–103) was performed using the Mann–Whitney U-test (*p < 0.05).

[2] = tested on: cellular GAGs on CHO cells; settings: binds dose-dependently to GAGs on CHO cells; cited from earlier work
[3] = tested on: CXCL8(1-77) binding to heparan sulfate (HS); experiment: Competition with CXCL8 for binding to immobilized HS (ELISA-like); set-up: species or system human; settings: CXCL8(1-77) 0-300 nM, n ≥ 4, Figure 3B
Description: as §1, §2

[4] = tested on: CXCL8-induced neutrophil migration; experiment: CXCL8-induced neutrophil migration to the peritoneal cavity; assay type: in vivo, mouse (NMRI); settings: 108 µg peptide i.p.; data not shown
Description: In vivo neutrophil extravasation to the peritoneal or the knee cavity was examined, respectively, by intraperitoneal or intra-articular injection, of endotoxin-free recombinant CXCL8(1-77) (PeproTech) or vehicle (PBS) in female NMRI or C57BL/6 mice, as described previously ([42], [48]). Simultaneously, synthetic CXCL9 peptide was co-injected either intraperitoneally or injected intravenously. After 2 h (peritoneal cavity) or 3 h (knee cavity), mice were sacrificed. The peritoneal cavity was washed with saline enriched with 2% FCS and 20 U/ml heparin and total leukocyte counts were determined. For the preparation of cytospins, 10^5 cells were used and absolute number and percentage of neutrophils in the lavages were determined in duplicate independently by two researchers by differential microscopic counting. The cells present in the tibiofemoral articulation were harvested by washing the cavity with 10 µl of 3% (w/v) bovine serum albumin in PBS and diluted in 90 µl of 3% (w/v) bovine serum albumin in PBS. The number of total leukocytes was determined by counting leukocytes in a Neubauer chamber after staining with Turk’s solution. Differential counts were obtained from cytospin preparations by evaluating the percentage of each leukocyte type on a slide stained with May-Grunwald-Giemsa solution.
Figure 4 The COOH-terminal peptides of CXCL9 inhibit CXCL8-induced neutrophil migration to the peritoneal cavity. CXCL8(1-77) was injected into the peritoneal cavity of NMRI mice (n ≥ 5) simultaneously with an intraperitoneal (A) or intravenous (B,C) injection of CXCL9(74-103) or CXCL9(74–93). The number of neutrophils in the peritoneal cavity, 2 h post injection, were evaluated by differentially counting the leukocyte subtypes on Hemacolor-stained cytospins. The neutrophil counts are shown for every individual mouse, and the horizontal lines denote the median percentage. To detect statistically significant differences, the Mann–Whitney U-test was carried out (*p < 0.05; **p < 0.01; ***p < 0.005).

[5] = tested on: CXCL1(1-72) binding to heparan sulfate (HS); experiment: Competition with CXCL1 for binding to immobilized HS; set-up: species or system murine; settings: n ≥ 3; Figure 6A
Description: as §1
Competition between CXCL1 and COOH-terminal CXCL9 peptides for binding to immobilized heparan sulfate (HS) (A) and chondroitin sulfate (CS) (B) was performed. […] Bound CXCL1 was detected with biotinylated polyclonal goat anti-mouse CXCL1 antibodies. The mean (± SEM) percentage inhibition of CXCL1 binding to GAGs is indicated on the y-axis (n ≥ 3). Statistical comparison of the different competitors with CXCL9(74–103) was performed using the Mann–Whitney U-test.

[6] = tested on: CXCL8-induced neutrophil migration; settings: cited from earlier work
[7] = tested on: HS expression on CHO cells; experiment: HS expression on CHO cells after NaClO3 treatment, flow cytometry; assay type: cell-based, Chinese hamster; settings: 100 mM NaClO3, 24 h; anti-HS antibody; data not shown
Description: Chinese hamster ovary (CHO) cells were a gift from M. Parmentier (ULB, Brussels, Belgium) and were cultured in Ham’s F-12 medium (with L-glutamine; Lonza, Belgium) supplemented with 10% fetal calf serum (FCS) and 0.8% G418 (Geneticin®; Life Technologies), as described ([44]). To inhibit sulfation of cellular GAGs, CHO cells were cultured in the presence of 100 mM sodium chlorate (NaClO3) for 24 h as previously described ([42]).
Binding of biotinylated CXCL9(74-103) and CXCL9(74-93) to CHO cells was assessed by flow cytometry as recently described ([42]). Briefly, cells were detached with phosphate-buffered saline (PBS) with 0.02% ethylenediaminetetraacetic acid (EDTA) and incubated with NH2-terminally biotinylated peptides. Subsequently, cells were incubated with streptavidin-allophycocyanin (BD Biosciences, San Jose, CA, USA) and analyzed by flow cytometry (FACSCalibur, BD Biosciences). To confirm inhibition of sulfation of cellular GAGs, part of the cells were stained with a mouse monoclonal anti-human HS antibody (Immunosource, Schilde, Belgium) and a secondary phycoerythrin-labeled goat anti-mouse antibody (BD Biosciences). Finally, cells were analyzed by flow cytometry. Analogously, binding of 100 nM biotinylated CXCL8 in the presence or absence of CXCL9(74-103) or CXCL9(74-93) was compared on CHO cells.

[8] = Plasma level of intravenously injected fluorescent CXCL9(74-103); assay type: in vivo, mouse; settings: spectrofluorometric
Excerpt: Intravenously injected fluorescent CXCL9(74-103) was detected in plasma after different time intervals by spectrofluorometric analysis and quantified against murine plasma spiked with known concentrations of the fluorescent peptide.

Which “molar excess over CXCL8 giving 50% reduction of CXCL8 binding to heparin” value ([1]; CXCL8(1-77) 0-300 nM, 2 h at 37°C, anti-CXCL8 detection, 450 nm, Figure 3A) does the source give for “47NGRKICLDLQAPLYKKIIKKLLES70 [CXCL4(47-70), COOH-terminal peptide of CXCL4, reference compound]” here?
Its value is “more than 100 fold molar excess”.

What about the “competition with CXCL8 for heparin binding (relative potency)” value ([1]; Figure 3) of the same molecule?
The value was “less potent competitor of CXCL8 binding than the CXCL9 peptides”.

What about the “affinity for GAGs on CHO cells relative to CXCL9(74-103)” value [2] of the same molecule?
The value was “about fivefold lower affinity than CXCL9(74-103)”.

Which results are given for “86KKVLKVRKSQRSRQKKTT103 [CXCL9(86-103), COOH-terminal peptide of CXCL9]”?
inhibition of CXCL8 binding on HS-coated plates [3]: poorly competing; inhibition of CXCL8-induced neutrophil migration to peritoneal cavity [4]: did not inhibit CXCL8-induced neutrophil migration; competition for CXCL1 binding to HS [5]: not able to inhibit the interaction between CXCL1 and HS; inhibition of chemotactic activity of CXCL8 in vivo [6]: unable to inhibit chemotactic activity of CXCL8 in vivo

For `[Na+].[O-][Cl+2]([O-])[O-]` [NaClO3, sodium chlorate], which “reduction of HS expression on CHO cells” value [7] is on record?
The value was 71.4%.

With `CC(C)C[C@H](NC(=O)[C@@H](NC(=O)[C@H](CCCCN)NC(=O)[C@H](CCCCN)NC(=O)[C@H](CCCCN)NC(=O)[C@H](CCC(N)=O)NC(=O)[C@H](Cc1c[nH]cn1)NC(=O)[C@H](CCCCN)NC(=O)[C@H](CCCCN)NC(=O)CNC(=O)[C@H](CC(N)=O)NC(=O)[C@H](CCCCN)NC(=O)[C@H](CCC(N)=O)NC(=O)[C@H](CCCCN)NC(=O)[C@H](CCCCN)NC(=O)[C@H](CCCCN)NC(=O)c1ccc2c(c1)C(=O)OC21c2ccc(N(C)C)cc2Oc2cc(N(C)C)ccc21)C(C)C)C(=O)N[C@@H](CCCCN)C(=O)N[C@H](C(=O)N[C@@H](CCCNC(=N)N)C(=O)N[C@@H](CCCCN)C(=O)N[C@@H](CO)C(=O)N[C@@H](CCC(N)=O)C(=O)N[C@@H](CCCNC(=N)N)C(=O)N[C@@H](CO)C(=O)N[C@@H](CCCNC(=N)N)C(=O)N[C@@H](CCC(N)=O)C(=O)N[C@@H](CCCCN)C(=O)N[C@@H](CCCCN)C(=O)N[C@H](C(=O)N[C@H](C(=O)O)[C@@H](C)O)[C@@H](C)O)C(C)C` [TAMRA-CXCL9(74-103)] (5TAMRA-KKKQKNGKKHQKKKVLKVRKSQRSRQKKTT-OH) as the molecule, how does the “fraction of injected amount detected in plasma” value ([8]; 5 min after i.v. injection, assuming a blood volume of 3 ml) read?
The value was 3%.

What about the level at 5 min ([8]; mouse, plasma, iv, 5 min after i.v. injection, read-out: plasma concentration) of the same molecule?
Its level at 5 min is 2 µg/mL.

What about the level at 1 h ([8]; mouse, plasma, iv, 1 h after i.v. injection, no circulating peptide detected, read-out: plasma concentration) of the same molecule?
The level at 1 h was under 0.24 µg/mL.

Reference: paper PMC5423902, “CXCL9-Derived Peptides Differentially Inhibit Neutrophil Migration In Vivo through Interference with Glycosaminoglycan Interactions” (Frontiers in Immunology, 2017)
